# Source: article PMC2746281 (PLoS ONE, 2009)
# Like-named read-outs stand apart in the source and are kept apart here.
# Columns and labels:
# [1] = target: Fibroblast growth factor receptor 3 (Homo sapiens, UniProt P22607); test: Recombinant kinase ELISA assay, FGFR3; assay type: biochemical; conditions: recombinant human enzyme; ELISA-based assay, poly(Glu,Tyr 4:1) substrate
# Description: (§1) Full details for the generation of recombinant human KIT intracellular domain and other protein kinases (including Lyn, platelet derived growth factor receptor β, epidermal growth factor receptor, fibroblast growth factor receptor 1, Src, HCK, PYK, FES, Btk, Bmx, c-Ret, c-Fms, Syk, and c-Met) are provided in the Supplemental Methods (see Supporting Information; Methods S1). Experiments on ABL1, Akt1, protein kinase C-α, insulin-like growth factor receptor 1, and Pim1 were carried out by Proqinase (Germany). All other recombinant protein kinases were performed in-house using an enzyme-linked immunoassay; experimental details are provided in the Supplemental Methods (see Supporting Information; Methods S1).
# A 96-well microtitre plate (Immulon 2HB; ThermoLifeScience, Finland) was coated overnight with 0.25 mg/ml poly(Glu,Tyr 4:1), rinsed twice with 250 µl of washing buffer (10 mM phosphate-buffered saline [pH 7.4] and 0.05% Tween 20) and dried for 2 hours at room temperature. […] Reactions were initiated upon introduction of the enzyme and terminated with the addition of one reaction volume (50 μl) of 100 mM EDTA per 5 M urea mix. […] The final reaction product was quantified by spectrophotometry at 450 nm.
# Solubility = assay type: physicochemical
# Source text: The chemical name is 4-(4-methylpiperazin-1-ylmethyl)-N-[4-methyl-3-(4-pyridin-3ylthiazol-2-ylamino) phenyl]benzamide-mesylate methane sulfonic acid salt, and the chemical formula is C28H30N6OS·CH4O3S (Figure 1A). […] Fresh dilutions of masitinib were made for each experiment. The imatinib used in this study was purchased from Sequoia Research (UK).
# Focal adhesion kinase = Focal adhesion kinase (Homo sapiens, UniProt Q05397); test: Recombinant kinase ELISA assay, focal adhesion kinase; assay type: biochemical; conditions: recombinant human enzyme; ELISA-based assay, poly(Glu,Tyr 4:1) substrate
# Description: as §1
# Jak2 = Jak2 (Homo sapiens, UniProt O60674); test: Recombinant kinase screen (Proqinase), Jak2; assay type: biochemical; conditions: recombinant human enzyme; single experiment, kinase screen by Proqinase
# [2] = target: T1, Fibroblast growth factor receptor 1 (Homo sapiens, UniProt P11362); test: Ba/F3 cell proliferation (WST-1), FGFR1; set-up: expressed in transfected cells; host or cells: Ba/F3 (general description; not repeated for this kinase); conditions: Ba/F3 cells expressing the enzyme, read-out: Cell-based assay IC50, Fibroblast growth factor receptor 1
# Flt3 = Flt3 (Homo sapiens, UniProt P36888); test: Recombinant kinase ELISA assay, Flt3; assay type: biochemical; conditions: recombinant human enzyme; ELISA-based assay, poly(Glu,Tyr 4:1) substrate
# Description: as §1
# Ba/F3 cells = test: IL-3-stimulated proliferation of Ba/F3 cells expressing human wild-type KIT; assay type: cell-based; conditions: Mus musculus, BaF3, read-out: IC50 for inhibition of IL-3-stimulated proliferation
# Description: Cells were grown for 48 hours at 37°C and then incubated with 10 µl/well of WST-1 reagent (Roche Applied Science, France) for 3 hours at 37°C. The amount of formazan dye formed was quantified by its absorbance at 450 nm using a scanning multiwell spectrophotometer (MultiSkan MS, Thermo-LabSystems, France). A blank well without cells was used as a background control for the spectrophotometer and all assays were performed in triplicate.
# recombinant human KIT = recombinant human KIT (Homo sapiens, UniProt P10721)
# Description: Tyrosine phosphorylation by KIT was assayed by measuring the incorporation of phosphate into poly(Glu,Tyr 4∶1). […] Recombinant human KIT tyrosine kinase assays were performed using an ELISA-based assay with poly(Glu,Tyr 4∶1) as a substrate.
# A 96-well microtitre plate (Immulon 2HB; ThermoLifeScience, Finland) was coated overnight with 0.25 mg/ml poly(Glu,Tyr 4:1), rinsed twice with 250 µl of washing buffer (10 mM phosphate-buffered saline [pH 7.4] and 0.05% Tween 20) and dried for 2 hours at room temperature. […] Reactions were initiated upon introduction of the enzyme and terminated with the addition of one reaction volume (50 μl) of 100 mM EDTA per 5 M urea mix. Plates were washed three times and incubated with 1:30,000 horseradish peroxidase-conjugated anti-phosphotyrosine monoclonal antibody (Sigma-Aldrich, France), then washed three times and incubated with tetramethylbenzidine. The final reaction product was quantified by spectrophotometry at 450 nm.
# [3] = test system: EOL1 cells expressing the FIP1L1-PDGFRα chimeric protein; test: EOL1 cell proliferation; assay type: cell-based; conditions: Homo sapiens, EOL1, read-out: IC50, inhibition of proliferation in EOL1 cells
# Description: Figures 5C), a hypereosinophilic tumour cell line expressing the FIP1L1-PDGFRα chimeric protein, which is associated with chronic eosinophilic leukaemia.
# Cell growth was assessed by WST-1 colorimetric assay. […] (D) Western blotting analysis of EOL1 tyrosine phosphorylation. MW = molecular weight markers.
# Fes = target: T2, Fes (Homo sapiens, UniProt P07332); test: Recombinant kinase ELISA assay, Fes; assay type: biochemical; conditions: recombinant human enzyme; ELISA-based assay, poly(Glu,Tyr 4:1) substrate
# T2 construct: Fes (2-822; BC035357); 6xHN (N); made in house; host or cells: baculovirus, Sf9 insect cells
# Description: as §1
# (§2) The sequences encoding PDGF receptor β (residues 554–1106; GenBank accession no. BC032224), Lyn B (2–583; accession no. BC059394), fibroblast growth factor receptor 1 (572–959; accession no. BC018128), Src (2–536; accession no. BC011566), Btk (2–659; accession no. BC109079), Bmx (2–675; accession no. BC016652), c-Ret (713–1114; accession no. BC004257), c-Fms (538–972; BC047531), Syk (2–612; BC011399), Hck (2-526; accession no. BC014435), Fes (2-822; accession no. BC035357), PYK2 (2-1006; accession no. BC042599) and c-Met (949–1398; accession no. lifeseq3489592) were amplified by PCR from IMAGE cDNA clones purchased from Openbiosystems. […]
# [4] = target: T1, Fibroblast growth factor receptor 1; test: Recombinant kinase ELISA assay, FGFR1; assay type: biochemical; set-up: fibroblast growth factor receptor 1 (572–959; BC018128); 6xHN (N); made in house; host or cells: baculovirus, Sf9 insect cells; conditions: recombinant human enzyme; ELISA-based assay, poly(Glu,Tyr 4:1) substrate
# Description: as §1, §2
# Target sequence in this assay (P11362 434-822 limits assumed): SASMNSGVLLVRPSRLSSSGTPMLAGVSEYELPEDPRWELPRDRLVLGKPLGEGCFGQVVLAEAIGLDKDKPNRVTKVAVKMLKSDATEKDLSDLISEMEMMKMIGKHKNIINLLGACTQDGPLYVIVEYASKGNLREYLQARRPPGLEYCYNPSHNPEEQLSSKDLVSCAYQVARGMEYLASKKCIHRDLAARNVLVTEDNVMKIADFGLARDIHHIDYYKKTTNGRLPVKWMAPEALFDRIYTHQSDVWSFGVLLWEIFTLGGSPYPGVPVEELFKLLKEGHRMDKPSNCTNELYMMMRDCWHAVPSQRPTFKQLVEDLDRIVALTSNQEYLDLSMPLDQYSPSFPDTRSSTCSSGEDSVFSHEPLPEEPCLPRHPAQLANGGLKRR
# Sequence of recombinant human KIT (P10721 567-976): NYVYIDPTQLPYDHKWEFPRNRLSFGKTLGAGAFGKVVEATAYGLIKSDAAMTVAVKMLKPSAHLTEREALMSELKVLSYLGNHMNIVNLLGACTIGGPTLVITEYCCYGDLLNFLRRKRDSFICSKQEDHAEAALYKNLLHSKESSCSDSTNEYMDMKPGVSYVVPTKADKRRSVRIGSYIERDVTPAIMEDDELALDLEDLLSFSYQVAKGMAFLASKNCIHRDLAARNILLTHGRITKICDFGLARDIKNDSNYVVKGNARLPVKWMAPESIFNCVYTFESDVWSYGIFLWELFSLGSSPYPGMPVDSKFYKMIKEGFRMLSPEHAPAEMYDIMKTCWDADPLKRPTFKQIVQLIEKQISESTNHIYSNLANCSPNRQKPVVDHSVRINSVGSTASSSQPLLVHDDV
# T2 sequence (P07332 2-822): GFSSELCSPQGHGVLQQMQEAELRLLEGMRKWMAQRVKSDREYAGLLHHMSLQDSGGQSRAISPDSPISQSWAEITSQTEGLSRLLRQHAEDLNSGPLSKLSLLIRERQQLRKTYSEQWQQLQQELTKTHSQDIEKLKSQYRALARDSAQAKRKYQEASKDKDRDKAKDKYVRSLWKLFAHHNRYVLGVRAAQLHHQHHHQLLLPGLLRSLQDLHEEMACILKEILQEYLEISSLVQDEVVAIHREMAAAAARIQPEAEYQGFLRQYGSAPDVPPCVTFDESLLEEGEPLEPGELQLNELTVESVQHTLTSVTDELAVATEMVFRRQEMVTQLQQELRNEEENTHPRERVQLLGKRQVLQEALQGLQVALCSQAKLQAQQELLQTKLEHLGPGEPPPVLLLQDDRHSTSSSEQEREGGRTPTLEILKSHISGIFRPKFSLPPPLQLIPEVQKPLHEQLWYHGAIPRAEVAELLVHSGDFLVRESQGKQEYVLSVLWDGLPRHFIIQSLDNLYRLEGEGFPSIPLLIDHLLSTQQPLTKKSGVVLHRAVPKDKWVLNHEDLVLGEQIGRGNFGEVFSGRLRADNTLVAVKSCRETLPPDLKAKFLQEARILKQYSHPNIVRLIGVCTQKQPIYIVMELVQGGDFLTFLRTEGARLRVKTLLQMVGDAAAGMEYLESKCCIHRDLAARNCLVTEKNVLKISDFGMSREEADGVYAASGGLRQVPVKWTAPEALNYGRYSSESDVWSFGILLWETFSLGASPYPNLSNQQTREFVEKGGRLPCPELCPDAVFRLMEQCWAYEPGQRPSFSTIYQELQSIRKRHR
# Sequence of Focal adhesion kinase (Q05397 whole entry): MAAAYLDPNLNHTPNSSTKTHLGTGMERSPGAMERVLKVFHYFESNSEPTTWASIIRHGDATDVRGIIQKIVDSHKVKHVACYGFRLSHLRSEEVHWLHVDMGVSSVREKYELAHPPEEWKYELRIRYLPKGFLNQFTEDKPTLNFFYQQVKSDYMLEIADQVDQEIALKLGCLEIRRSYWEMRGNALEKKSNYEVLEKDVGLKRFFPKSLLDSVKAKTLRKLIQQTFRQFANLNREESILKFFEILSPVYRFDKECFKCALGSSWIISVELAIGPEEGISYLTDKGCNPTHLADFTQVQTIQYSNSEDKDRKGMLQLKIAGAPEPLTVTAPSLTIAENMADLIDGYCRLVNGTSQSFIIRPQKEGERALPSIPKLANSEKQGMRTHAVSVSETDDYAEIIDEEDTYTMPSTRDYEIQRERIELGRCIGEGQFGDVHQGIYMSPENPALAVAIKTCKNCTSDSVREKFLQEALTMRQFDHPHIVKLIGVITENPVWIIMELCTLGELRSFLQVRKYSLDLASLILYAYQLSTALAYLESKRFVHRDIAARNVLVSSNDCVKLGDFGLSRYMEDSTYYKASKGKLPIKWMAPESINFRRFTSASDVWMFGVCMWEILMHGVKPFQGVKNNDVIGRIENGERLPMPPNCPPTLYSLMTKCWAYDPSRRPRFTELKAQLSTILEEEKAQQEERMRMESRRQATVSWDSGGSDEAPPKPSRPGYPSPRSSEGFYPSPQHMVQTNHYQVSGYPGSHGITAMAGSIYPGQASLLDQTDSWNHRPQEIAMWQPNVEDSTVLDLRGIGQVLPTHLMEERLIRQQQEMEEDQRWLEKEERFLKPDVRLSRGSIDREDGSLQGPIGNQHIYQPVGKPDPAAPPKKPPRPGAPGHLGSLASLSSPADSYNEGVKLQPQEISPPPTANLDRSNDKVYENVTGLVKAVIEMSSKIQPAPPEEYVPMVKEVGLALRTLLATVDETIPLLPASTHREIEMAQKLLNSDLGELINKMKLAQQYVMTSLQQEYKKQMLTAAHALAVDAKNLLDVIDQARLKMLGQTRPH
# Sequence of Flt3 (P36888 27-993): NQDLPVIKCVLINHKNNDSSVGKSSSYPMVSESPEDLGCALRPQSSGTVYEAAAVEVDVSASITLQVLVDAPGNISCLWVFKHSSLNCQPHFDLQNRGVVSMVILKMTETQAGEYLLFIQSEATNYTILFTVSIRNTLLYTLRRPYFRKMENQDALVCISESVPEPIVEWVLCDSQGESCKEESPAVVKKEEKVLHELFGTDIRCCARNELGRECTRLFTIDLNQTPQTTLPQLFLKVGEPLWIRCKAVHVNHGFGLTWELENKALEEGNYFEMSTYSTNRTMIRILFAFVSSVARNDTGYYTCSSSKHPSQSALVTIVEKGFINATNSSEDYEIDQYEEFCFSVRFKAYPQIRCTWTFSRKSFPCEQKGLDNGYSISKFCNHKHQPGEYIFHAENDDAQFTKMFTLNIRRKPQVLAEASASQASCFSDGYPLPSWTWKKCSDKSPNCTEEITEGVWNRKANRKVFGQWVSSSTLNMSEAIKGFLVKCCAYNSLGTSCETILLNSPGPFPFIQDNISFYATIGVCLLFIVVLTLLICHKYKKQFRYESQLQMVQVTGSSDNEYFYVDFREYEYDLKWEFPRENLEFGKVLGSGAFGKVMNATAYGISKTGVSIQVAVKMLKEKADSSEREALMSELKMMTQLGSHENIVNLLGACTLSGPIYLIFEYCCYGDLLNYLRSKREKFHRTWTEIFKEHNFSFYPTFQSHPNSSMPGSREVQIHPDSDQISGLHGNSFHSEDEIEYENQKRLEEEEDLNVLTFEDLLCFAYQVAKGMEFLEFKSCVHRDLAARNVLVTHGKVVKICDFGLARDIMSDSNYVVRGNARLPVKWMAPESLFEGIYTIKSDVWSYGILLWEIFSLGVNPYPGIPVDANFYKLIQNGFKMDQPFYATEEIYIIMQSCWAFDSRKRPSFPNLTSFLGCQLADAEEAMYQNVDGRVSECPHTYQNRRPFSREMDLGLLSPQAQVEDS
# Sequence of Jak2 (O60674 whole entry): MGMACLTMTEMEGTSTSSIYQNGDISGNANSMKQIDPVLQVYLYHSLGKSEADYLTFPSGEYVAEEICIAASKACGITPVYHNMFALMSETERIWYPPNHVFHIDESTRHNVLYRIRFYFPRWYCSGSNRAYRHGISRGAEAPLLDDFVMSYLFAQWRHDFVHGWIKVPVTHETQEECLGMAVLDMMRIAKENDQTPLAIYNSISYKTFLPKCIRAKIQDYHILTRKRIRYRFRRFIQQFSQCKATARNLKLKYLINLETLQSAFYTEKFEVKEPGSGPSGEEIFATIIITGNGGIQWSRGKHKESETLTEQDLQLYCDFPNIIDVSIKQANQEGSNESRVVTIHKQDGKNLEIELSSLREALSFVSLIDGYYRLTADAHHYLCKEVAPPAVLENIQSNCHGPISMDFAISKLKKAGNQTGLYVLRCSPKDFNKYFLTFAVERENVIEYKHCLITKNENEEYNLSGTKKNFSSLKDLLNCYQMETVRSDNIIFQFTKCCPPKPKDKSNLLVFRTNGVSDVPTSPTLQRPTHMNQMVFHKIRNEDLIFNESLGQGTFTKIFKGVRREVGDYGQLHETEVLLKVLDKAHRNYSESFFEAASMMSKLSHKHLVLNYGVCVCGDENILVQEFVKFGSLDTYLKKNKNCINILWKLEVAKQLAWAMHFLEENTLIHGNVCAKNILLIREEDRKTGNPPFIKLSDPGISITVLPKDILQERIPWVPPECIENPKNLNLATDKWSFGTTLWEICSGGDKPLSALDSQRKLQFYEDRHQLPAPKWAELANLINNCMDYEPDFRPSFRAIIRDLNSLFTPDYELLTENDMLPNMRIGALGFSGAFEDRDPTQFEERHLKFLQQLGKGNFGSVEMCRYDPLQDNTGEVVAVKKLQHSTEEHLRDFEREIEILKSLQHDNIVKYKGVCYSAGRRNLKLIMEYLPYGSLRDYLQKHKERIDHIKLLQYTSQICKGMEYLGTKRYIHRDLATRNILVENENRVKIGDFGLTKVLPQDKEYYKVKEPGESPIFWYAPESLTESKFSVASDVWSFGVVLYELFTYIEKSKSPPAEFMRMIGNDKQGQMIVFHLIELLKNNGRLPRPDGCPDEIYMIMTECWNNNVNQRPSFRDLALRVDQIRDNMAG
compound,measurement,setting,value
"CS(=O)(=O)O.CS(=O)(=O)O.Cc1ccc(NC(=O)c2ccc(CN3CCN(C)CC3)cc2)cc1Nc1nc(-c2cccnc2)cs1 [masitinib, 4-(4-methylpiperazin-1-ylmethyl)-N-[4-methyl-3-(4-pyridin-3ylthiazol-2-ylamino)phenyl]benzamide-mesylate methane sulfonic acid salt]",IC50,[1],> 10 µM
same,solubility,Solubility; 0.1 M HCl,freely soluble
same,solubility,Solubility; 0.1 M NaOH,practically insoluble
same,solubility,Solubility; dimethylsulfoxide,freely soluble
same,solubility,Solubility; ethanol,slightly soluble
same,solubility,Solubility; n-hexane,practically insoluble
same,solubility,Solubility; propylene glycol,slightly soluble
same,solubility,Solubility; water,soluble
same,IC50,Focal adhesion kinase,> 10 µM
same,IC50,Jak2,> 10 µM
same,IC50,[2],7 ± 1.9 µM
same,IC50,Flt3,> 10 µM
same,IC50,Ba/F3 cells,> 5 µM
same,mechanism of inhibition against ATP,recombinant human KIT; concentrations ≤500 nM,competitive inhibitor against ATP
same,mechanism of inhibition against ATP,recombinant human KIT; higher concentrations (>1 µM),mixed mechanism of inhibition against ATP
same,IC50,[3],0.0002 ± 0.0001 µM
same,IC50,Fes,> 10 µM
same,IC50,[4],> 10 µM
